Columns and labels:
B. subtilis 168 = experiment: Bliss interaction score (quartile over a dose matrix) (fitness difference); higher = more antagonism (negative = synergy)
Summary of the method: (§1)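 Fitness was derived from optical density at entry into stationary phase, divided by the robust mean of the no-drug wells on the same plate. That reading was taken as OD595, and the ratio was capped at 1. Single-drug fitness was inferred from the combination data. The Bliss score, observed fitness minus the expected product of single-drug fitness, was summarised as quartiles over technical, biological and donor/recipient replicates.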

S. aureus Newman [1] = experiment: as above
Summary of the method: as §1

S. aureus DSM 20231 [2] = experiment: as above
Summary of the method: as §1

S. pneumoniae D39V [3] = experiment: as above
Summary of the method: as §1

S. aureus Newman [4] = experiment: fitness (endpoint OD595 vs no drug) (fraction); higher = more growth
Summary of the method: (§2)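 Plates with 384 wells were inoculated at OD595 0.01 using 30 µl of TSB, LB Lennox or CY, or 55 µl for S. pneumoniae. Incubation was at 37 °C, with OD595 measured every 30 min for 14 h. Fitness is the stationary-phase transition optical density over the robust mean of no-drug control wells, after first-reading background subtraction; it is capped at 1.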

S. aureus DSM 20231 [5] = experiment: as above
Summary of the method: as §2

S. pneumoniae D39V [6] = experiment: as above
Summary of the method: as §2
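Throughout, for Bliss interaction score (quartile over a dose matrix): first quartile when negative (synergy) and third quartile when positive (antagonism).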

Cc1onc(-c2ccccc2)c1C(=O)N[C@@H]1C(=O)N2[C@@H]1SC(C)(C)[C@@H]2C(=O)O [Oxacillin] + Cn1nnc(-c2ccc(-c3ccc(N4C[C@H](CO)OC4=O)cc3F)cn2)n1 [Tedizolid]
Settings | Bliss interaction score
B. subtilis 168 | -0.0469
S. aureus DSM 20231 [2] | 0.0921
S. aureus Newman [1] | -0.0682
S. pneumoniae D39V [3] | 0.0979

fitness
Settings | partner 0.03125 µg/mL | partner 0.0625 µg/mL | partner 0.125 µg/mL | partner 0.25 µg/mL | partner 0.5 µg/mL
S. aureus DSM 20231 [5], first compound 0.0156 µg/mL | – | 0.791 | 0.731 | 0.312 | –
S. aureus DSM 20231 [5], first compound 0.0312 µg/mL | – | 0.687 | 0.593 | 0.279 | –
S. aureus DSM 20231 [5], first compound 0.0625 µg/mL | – | 0.51 | 0.503 | 0.261 | –
S. aureus Newman [4], first compound 0.0156 µg/mL | – | 0.746 | 0.673 | 0.425 | –
S. aureus Newman [4], first compound 0.0312 µg/mL | – | 0.693 | 0.579 | 0.24 | –
S. aureus Newman [4], first compound 0.0625 µg/mL | – | 0.562 | 0.481 | 0.159 | –
S. pneumoniae D39V [6], first compound 0.01 µg/mL | 0.974 | 0.931 | 0.851 | 0.683 | 0.336
S. pneumoniae D39V [6], first compound 0.02 µg/mL | 0.935 | 0.933 | 0.835 | 0.644 | 0.39
S. pneumoniae D39V [6], first compound 0.04 µg/mL | – | 0.728 | 0.614 | 0.468 | 0.157

C[n+]1ccc(-c2cc[n+](C)cc2)cc1 [Paraquat] + CN[C@H](CC(C)C)C(=O)N[C@H]1C(=O)N[C@@H](CC(N)=O)C(=O)N[C@H]2C(=O)N[C@H]3C(=O)N[C@H](C(=O)N[C@H](C(=O)O)c4cc(O)cc(O)c4-c4cc3ccc4O)[C@H](O)c3ccc(c(Cl)c3)Oc3cc2cc(c3O[C@@H]2O[C@H](CO)[C@@H](O)[C@H](O)[C@H]2O[C@H]2C[C@](C)(N)[C@H](O)[C@H](C)O2)Oc2ccc(cc2Cl)[C@H]1O [Vancomycin]
Settings | Bliss interaction score
B. subtilis 168 | 0.0779
S. aureus DSM 20231 [2] | 0.0505
S. aureus Newman [1] | 0.0613
S. pneumoniae D39V [3] | 0.101

Settings | fitness
S. aureus DSM 20231 [5], first compound 1.25 µg/mL, partner 0.1875 µg/mL | 0.908
S. aureus DSM 20231 [5], first compound 1.25 µg/mL, partner 0.375 µg/mL | 0.956
S. aureus DSM 20231 [5], first compound 1.25 µg/mL, partner 0.75 µg/mL | 0.963
S. aureus DSM 20231 [5], first compound 2.5 µg/mL, partner 0.1875 µg/mL | 0.87
S. aureus DSM 20231 [5], first compound 2.5 µg/mL, partner 0.375 µg/mL | 0.986
S. aureus DSM 20231 [5], first compound 2.5 µg/mL, partner 0.75 µg/mL | 0.969
S. aureus DSM 20231 [5], first compound 5 µg/mL, partner 0.1875 µg/mL | 0.861
S. aureus DSM 20231 [5], first compound 5 µg/mL, partner 0.375 µg/mL | ≥ 1
S. aureus DSM 20231 [5], first compound 5 µg/mL, partner 0.75 µg/mL | 0.964
S. aureus Newman [4], first compound 1.25 µg/mL, partner 0.1875 µg/mL | 0.933
S. aureus Newman [4], first compound 1.25 µg/mL, partner 0.375 µg/mL | 0.898
S. aureus Newman [4], first compound 2.5 µg/mL, partner 0.1875 µg/mL | 0.911
S. aureus Newman [4], first compound 2.5 µg/mL, partner 0.375 µg/mL | 0.898
S. aureus Newman [4], first compound 5 µg/mL, partner 0.1875 µg/mL | 0.933
S. aureus Newman [4], first compound 5 µg/mL, partner 0.375 µg/mL | 0.917
S. aureus Newman [4], first compound 5 µg/mL, partner 0.75 µg/mL | 0.935
S. pneumoniae D39V [6], first compound 1.5 µg/mL, partner 0.03125 µg/mL | 0.998
S. pneumoniae D39V [6], first compound 1.5 µg/mL, partner 0.0625 µg/mL | 0.984
S. pneumoniae D39V [6], first compound 1.5 µg/mL, partner 0.125 µg/mL | 0.855
S. pneumoniae D39V [6], first compound 3 µg/mL, partner 0.03125 µg/mL | 1
S. pneumoniae D39V [6], first compound 3 µg/mL, partner 0.0625 µg/mL | 0.994
S. pneumoniae D39V [6], first compound 3 µg/mL, partner 0.125 µg/mL | 0.851
S. pneumoniae D39V [6], first compound 6 µg/mL, partner 0.03125 µg/mL | ≥ 1
S. pneumoniae D39V [6], first compound 6 µg/mL, partner 0.0625 µg/mL | 0.974
S. pneumoniae D39V [6], first compound 6 µg/mL, partner 0.125 µg/mL | 0.891

fitness, S. pneumoniae D39V [6], one replicate
Settings | first compound 1.5 µg/mL | first compound 3 µg/mL | first compound 6 µg/mL
partner 0.25 µg/mL | 0.18 | 0.249 | 0.372
partner 0.5 µg/mL | 0.0697 | 0.0334 | 0.129

C[n+]1ccc(-c2cc[n+](C)cc2)cc1 [Paraquat] + Cn1nnc(-c2ccc(-c3ccc(N4C[C@H](CO)OC4=O)cc3F)cn2)n1 [Tedizolid]
Settings | Bliss interaction score
B. subtilis 168 | 0.075
S. aureus DSM 20231 [2] | 0.0784
S. aureus Newman [1] | -0.041
S. pneumoniae D39V [3] | -0.0684

fitness
Settings | partner 0.03125 µg/mL | partner 0.0625 µg/mL | partner 0.125 µg/mL | partner 0.25 µg/mL
S. aureus DSM 20231 [5], first compound 1.25 µg/mL | – | 0.866 | 0.644 | 0.117
S. aureus DSM 20231 [5], first compound 2.5 µg/mL | – | 0.803 | 0.583 | 0.161
S. aureus DSM 20231 [5], first compound 5 µg/mL | – | 0.836 | 0.588 | 0.137
S. aureus Newman [4], first compound 1.25 µg/mL | – | 0.855 | 0.762 | –
S. aureus Newman [4], first compound 2.5 µg/mL | – | 0.902 | 0.805 | –
S. aureus Newman [4], first compound 5 µg/mL | – | 0.843 | – | –
S. pneumoniae D39V [6], first compound 1.5 µg/mL | 0.926 | 0.948 | 0.86 | –
S. pneumoniae D39V [6], first compound 3 µg/mL | 0.956 | 0.951 | 0.846 | –
S. pneumoniae D39V [6], first compound 6 µg/mL | 0.932 | 0.934 | 0.817 | –

fitness, S. pneumoniae D39V [6], one replicate
Settings | first compound 1.5 µg/mL | first compound 3 µg/mL | first compound 6 µg/mL
partner 0.25 µg/mL | 0.796 | 0.786 | 0.808
partner 0.5 µg/mL | 0.626 | 0.603 | 0.602

Source: the supplement of paper PMC10627819
